# Results as given in patent US5340806A, “Composition containing organogermanium compound and immunity adjusting agent comprising the composition” (Sanwa Kagaku Kenkyusho Co., Ltd., priority 1984, dated 1994).
# How the values were obtained:
# chronic B hepatitis = assay type: in vivo, human patients; details: 30 mg/day
# Excerpt: Utility or effectiveness of the organogermanium compound is checked in comparison with that of a placebo as a control. Interferons have widely been accepted as drugs for curing chronic hepatitis, but those are injectionally dosed. On the contrary, the organogermanium compound is orally dosed. In recent years, some oral medicines for curing liver diseases have been developed and the effectiveness thereof has been evaluated by using a placebo as its control. Therefore, the "placebo" is selected as the control for the evaluation of the organogermanium compound in question. (a) To patients with chronic B hepatitis: 30 mg/day/body. Experiment period of time was set for 16 weeks for the patients with chronic B hepatitis and for 12 weeks for the patients with non A and non B hepatitis.
# [1] = tested on: chronic non A non B hepatitis; assay: Chronic non A non B hepatitis, 15/30/60 mg/day, 12 weeks (Table 5B); assay type: in vivo, human patients
# Procedure: Search on utility or effectiveness of the organogermanium compound on patients who are infected with chronic B hepatitis, or with non A non B hepatitis, and show "positive" to HBe antigen as well as a preferable amount of dose thereof.
# The amount of dose has been set as follows, by taking the results given in In Vivo Utilization Example 1 into consideration.
# (a) 60 mg/day/body showing most preferable data in effectiveness,
# (b) 30 mg/day/body showing effectiveness in some Experiments, and
# (c) 15 mg/day/body (for taking control data).
# Experimental period of time was set for 12 weeks.
# (a) Examination of liver functions (GOT, GPT, total bilirubin, LDH, y-GTP, and y-globulin), and
# (b) Examination with use of HBV marker (HBe-Ag).
# [2] = tested on: chronic non A non B hepatitis; assay: Long term dosing in chronic non A non B hepatitis (In Vivo Utilization Example 6); set-up: species or system human patients; details: for Liver tissue improvement: Ballooning of cell: 4 patients; for Liver tissue improvement: Moderation of lobule: 8 patients; for Liver tissue improvement: Fatty degeneration: 9 patients; for Glisson's capsule improvement: Piecemeal necrosis: 13 patients; for Liver tissue improvement: Mobilization image of Kupfer cell: 16 patients; for Glisson's capsule improvement: Fibrosis / Glisson's capsule improvement: Round cell infiltration / Liver tissue improvement: Cobwebby necrosis / Liver tissue improvement: Degenerative necrosis in cell: 17 patients
# Procedure: A capsule containing the organogermanium compound was dosed to patients infected with chronic non A non B hepatitis over a long period of time to check safety and effectiveness of the organogermanium compound.
# (a) Number of patients for analyzation: 68 persons.
# Group A: 39 persons (dose; 30 mg/day/body), and
# Group B: 29 persons (dose; 60 mg/day/body).
# (b) Mean dosing period of time
# (c) Number of patients who continuously dose over 48 weeks
# BALB/C mouse lymphocytes = assay: Antibody production in culture system of BALB/C mouse lymphocytes; assay type: cell-based, BALB/C male mice
# [3] = tested on: spleen cells (PFC), Sarcoma 180 cancered mice; assay: Antibody production ability in cancered mouse (spleen cell PFC); assay type: in vivo, ICR male mice; details: oral for 5 days, depending on dosing amount; FIG. 9
# Procedure: 2×10^6 cells of a mouse tumor cell (Sarcoma 180) were implanted under the skin of a side part of ICR male mice to form a solid cancer. The organogermanium compound (Compound No. 1 in Table 1) dissolved in 4% cattle serum albumin solution was orally dosed to the cancered mice for 5 days, after 9 days had elapsed from the implantation, 2×10^8 corpuscles of SRBC were injected in a tail vein of the mice for sensitization. After 4 days from the sensitization, spleen cells were extracted to measure of PFC therein, which was used as an index of the antibody productivity.
# [4] = 30 mg/day, patients of total 35
# [5] = 60 mg/day, patients of total 26
substance,measurement,setting,value
3-oxygermylpropionic acid [Compound No. 1],A/G change,chronic B hepatitis,.uparw. **
same,GOT change,chronic B hepatitis,.dwnarw. ***
same,"GOT, test versus placebo",chronic B hepatitis,+ (S>P)
same,GPT change,chronic B hepatitis,.dwnarw. ***
same,"GPT, test versus placebo",chronic B hepatitis,* (S>P)
same,Globulin change,chronic B hepatitis,.dwnarw. ***
same,"Globulin, test versus placebo",chronic B hepatitis,+ (S>P)
same,HBe-AG (log conversion) change,chronic B hepatitis,.uparw. ***
same,"HBe-AG (log conversion), test versus placebo",chronic B hepatitis,* (S>P)
same,HBe-Ab change,chronic B hepatitis,.uparw. *
same,"HBe-Ab, test versus placebo",chronic B hepatitis,* (S>P)
same,Serum albumin change,chronic B hepatitis,.uparw. +
same,TTT change,chronic B hepatitis,.dwnarw. ***
same,Total cholesterol change,chronic B hepatitis,.uparw. *
same,"Total cholesterol, test versus placebo",chronic B hepatitis,* (S>P)
same,ZTT change,chronic B hepatitis,.dwnarw. **
same,γ-GPT change,chronic B hepatitis,.dwnarw. **
same,Improvement (objective),"chronic B hepatitis; 16 weeks, placebo 13%",10%
same,Improvement (HBe Ag-Ab),"chronic B hepatitis; 16 weeks, placebo 25%",51%
same,Improvement (sec. judgement),"chronic B hepatitis; 16 weeks, placebo 29%",54%
same,Improvement (Doc. on duty),"chronic B hepatitis; 16 weeks, placebo 31%",58%
same,Effectiveness (slight or more),"chronic B hepatitis; 16 weeks, placebo 34%",63%
same,Improvement (general),"chronic B hepatitis; 16 weeks, placebo 39%",66%
same,Improvement (self),"chronic B hepatitis; 16 weeks, placebo 40%",53%
same,Effectiveness (slight or more),[1]; 15 mg/day,33%
same,General judgement: Improvement (slight or more),[1]; 15 mg/day,36%
same,Safety (quite),[1]; 15 mg/day,91%
same,Side effect,[1]; 15 mg/day,9.4%
same,Total bilirubin change,"[1]; 15 mg/day, 12 weeks",.dwnarw. *
same,γ-GPT change,"[1]; 15 mg/day, 12 weeks",.dwnarw. +
same,Effectiveness (slight or more),[1]; 30 mg/day,36%
same,General judgement: Improvement (slight or more),[1]; 30 mg/day,37%
same,Safety (quite),[1]; 30 mg/day,94%
same,Side effect,[1]; 30 mg/day,5.6%
same,Effectiveness (slight or more),[1]; 60 mg/day,55%
same,General judgement: Improvement (slight or more),[1]; 60 mg/day,57%
same,Safety (quite),[1]; 60 mg/day,95%
same,Side effect,[1]; 60 mg/day,5.4%
same,GOT change,"[1]; 60 mg/day, 12 weeks",.dwnarw. *
same,GPT change,"[1]; 60 mg/day, 12 weeks",.dwnarw. **
same,Total bilirubin change,"[1]; 60 mg/day, 12 weeks",.dwnarw. *
same,γ-GPT change,"[1]; 60 mg/day, 12 weeks",.dwnarw. *
same,γ-Globulin change,"[1]; 60 mg/day, 12 weeks",.dwnarw. *
same,Ratio of improvement: Middle or more,[2]; 30 mg/day,11.4%
same,Ratio of improvement: Slight or more,[2]; 30 mg/day,26.9%
same,Getting worse (functions of liver),[2]; [4],3
same,Middle improved (functions of liver),[2]; [4],2
same,No change (functions of liver),[2]; [4],20
same,Remarkably improved (functions of liver),[2]; [4],2
same,Ratio of improvement: Middle or more,[2]; 60 mg/day,34.3%
same,Ratio of improvement: Slight or more,[2]; 60 mg/day,57.7%
same,Getting worse (functions of liver),[2]; [5],0
same,Middle improved (functions of liver),[2]; [5],4
same,No change (functions of liver),[2]; [5],11
same,Remarkably improved (functions of liver),[2]; [5],3
same,Liver tissue improvement: Evaluation,"[2]; ≥middle, 1/17",5.9%
same,Liver tissue improvement: Bridging necrosis,"[2]; ≥middle, 3 patients",0%
same,Liver tissue improvement: Ballooning of cell,[2]; ≥middle,0%
same,Liver tissue improvement: Moderation of lobule,[2]; ≥middle,0%
same,Liver tissue improvement: Fatty degeneration,[2]; ≥middle,0%
same,Glisson's capsule improvement: Piecemeal necrosis,[2]; ≥middle,0%
same,Liver tissue improvement: Mobilization image of Kupfer cell,[2]; ≥middle,6.3%
same,Glisson's capsule improvement: Fibrosis,[2]; ≥middle,0%
same,Glisson's capsule improvement: Round cell infiltration,[2]; ≥middle,0%
same,Liver tissue improvement: Cobwebby necrosis,[2]; ≥middle,5.9%
same,Liver tissue improvement: Degenerative necrosis in cell,[2]; ≥middle,5.9%
same,Liver tissue improvement: Ballooning of cell,[2]; ≥slight,0. %
same,Liver tissue improvement: Moderation of lobule,[2]; ≥slight,12.5%
same,Liver tissue improvement: Fatty degeneration,[2]; ≥slight,22.2%
same,Liver tissue improvement: Evaluation,"[2]; ≥slight, 10/17",58.8%
same,Glisson's capsule improvement: Piecemeal necrosis,[2]; ≥slight,38.5%
same,Liver tissue improvement: Mobilization image of Kupfer cell,[2]; ≥slight,50.0%
same,Glisson's capsule improvement: Fibrosis,[2]; ≥slight,5.9%
same,Glisson's capsule improvement: Round cell infiltration,[2]; ≥slight,17.6%
same,Liver tissue improvement: Cobwebby necrosis,[2]; ≥slight,52.9%
same,Liver tissue improvement: Degenerative necrosis in cell,[2]; ≥slight,52.9%
same,antibody producing function,"BALB/C mouse lymphocytes; 10 μg/ml, FIG. 10b",an acceleration of the function
same,antibody producing function,BALB/C mouse lymphocytes; 1 to 2 μg/ml,no change
same,ability to produce antibodies (PFC),[3],the ability to produce antibodies recovers towards a normal level
